This is an account of results in paper PMC6001375, “CLERK is a novel receptor kinase required for sensing of root-active CLE peptides in Arabidopsis” (Development (Cambridge, England), 2018).

For one test, the system named is CLERK gene expression. Put plainly: CLERK::eGFP-GUS reporter expression in root meristem. It counts as in vivo, Arabidopsis thaliana. To be noted: 1 μM CLE26, 5 min vs 60 min (Fig. S1E); compared with VISUAL assay. From the text: B overlay of PI fluorescence withGFP channel, in absence of GFPC overlay of GFP fluorescence withPI channel, in absence of PI […]
Figure S1 – Supplemental figure. (A) Phylogenetic tree of the class II LRR-RKs of Arabidopsis. (B) Col-0 wild type control root meristem, […]
5 days old, confocal microscopy. Left: GFP channel, yellow, note some background on the root edges; Right: Overlay of GFP channel with […]
PI cell wall staining (cyan). (C) CLERK-GFP fusion protein expression pattern, confocal microscopy, imaged without PI cell wall staining.
Left: GFP fluorescence, yellow; Right: Overlay of GFP fluorescence with PI channel, note increased background. (D) BAM3-CITRINE fusion […]
protein expression pattern in a clerk mutant root meristem, confocal microscopy. Left: CITRINE fluorescence, yellow; Right: Overlay of CITRINE […]
fluorescence with PI cell wall staining (cyan). Asterisks indicate protophloem sieve element cell files. (E) CLERK gene expression in response […]
to CLE26 treatment, as monitored by GFP fluorescence in the root meristem of a Col-0 seedling that carried a CLERK::eGFP-GUS transgene, […]
confocal microscopy. The same root is shown at the beginning and end of a time course. GFP fluorescence, yellow; […]

Test [1] has as its system BAM3 ectodomain with CLERK/At5g63710 ectodomains. Put plainly: Analytical size-exclusion chromatography, BAM3 + CLERK/At5g63710 ectodomains. The format is binding, Arabidopsis thaliana. The settings on record: 50 µM peptide. As to the method:
(§1) Isolation of recombinant proteins and analytical gel filtrations were carried out as described previously ([Hazak et al., 2017]) with small adjustments. The coding sequences for BAM1-ECD (amino acids 20-637), BAM3-ECD (30-651), PXY-ECD (30-647), NIK1-ECD (32-248), NIK2-ECD (33-248), NIK3-ECD (26-238), CLERK-ECD (28-236) and At5G63710-ECD (51-224) were amplified from Arabidopsis thaliana cDNA using PfuX7 polymerase. All ECD-coding sequences were then cloned into a modified pFAST-BAC1 vector (Geneva Biotech) by GIBSON cloning, resulting in the addition of the azurocidin signal peptide sequence to the 5′-end, and of a 2×-STREP-9×HIS tag to the 3′-end of the ECD sequences. These plasmids, after being confirmed by sequencing, were transformed into Escherichia coli DH10MultiBac (Geneva Biotech) followed by the extraction of the resulting bacmids. Transfection of the bacmids into Spodoptera frugiperda Sf9 cells with Profectin (AB Vector) was carried out to produce and amplify the respective virus. Recombinant secreted expression of the proteins was carried out by addition of virus to Trichoplusia ni Tnao38 cells to reach a viral multiplicity of 1 and incubation of the cells for 3 days. […] Concentrations of the pure proteins were assessed by measuring their absorbance at 280 nm (NanoDrop Lite; Thermo Scientific) and subsequent correction with their respective extinction coefficient. […]
On the technique in general: In gel filtration, larger molecules generally elute earlier.

In another test the test system is BAM3 ectodomain. The settings on record: ref Hazak et al., 2017; cited from earlier work. From the text: The CLE resistance of clerk mutants could be explained through indirect effects, for example on the expression of bona fide CLE receptors, as proposed for crn ([Hazak et al., 2017]). To evaluate this scenario, we focused our efforts on the only identified CLE receptor in the root protophloem so far, the CLE45 receptor BAM3 ([Hazak et al., 2017]; [Kang and Hardtke, 2016]). Introduction of a BAM3::BAM3-CITRINE transgene into clerk mutants did however not reveal any altered BAM3 expression or localization (Fig. S1D). To also test whether CLERK could serve as a co-receptor for BAM3 instead, we obt ...

The subject of another test is Arabidopsis root growth. To be noted: ref Hazak et al., 2017; cited from earlier work. The source says:
The incapacity of clerk loss-of-function second site mutation to suppress the brx phenotype (unlike second site bam3 or clv2-crn loss of function) is also of interest with respect to the role of CLE peptide signaling in the spatiotemporal progression of protophloem sieve element differentiation. Resistance of clerk mutants against root-active CLE peptides as well as CLERK expression in early protophloem reiterate the key role of the protophloem in CLE sensing in the root ([Hazak et al., 2017]). Yet not all CLE peptides have an equally strong effect on root growth, which correlates with their i ...

Test [2] concerns BAM3 ectodomain with NIK1/2/3 ectodomains. The experiment in a line: Analytical size-exclusion chromatography, BAM3 + NIK1/2/3 ectodomains. The format is binding, Arabidopsis thaliana. To be noted: Fig. S3D; 50 µM peptide; pH 5.0. The protocol: as §1

Take RKVPRGPDPIHN [CLE26]: the “CLERK downregulation in the root meristem” value in the test on CLERK gene expression is “an equally strong effect was not observed in the root meristem”.
Take RRVRRGSDPIHN [CLE45]: the “Elution of BAM3 ectodomain with CLERK/At5g63710 ectodomains” value in test [1] (Fig. S3A, pH 5.0) is listed as “elute as monomers”. Also, the “Peptide-induced binding of CLERK and BAM3 ectodomains” value in test [1] (gel filtration, 20 mM citrate (pH 5.0), 150 mM NaCl) is given as “did not observe CLE45-induced binding”. The “Binding to BAM3 ectodomain” value with BAM3 ectodomain is given as “high-affinity”. The “Relative strength as root-active CLE peptide” value in the test with Arabidopsis root growth is reported as “strongest root-active CLE peptide”. The “Elution of BAM3 ectodomain with NIK1/2/3 ectodomains” value in test [2] was “elute as monomers”.
